Measurements from patent US10435361B2, “Kinase inhibitors” (Topivert Pharma Limited, priority 2013, dated 2019).

What follows are molecules tested on PBMCs (assay: LPS-induced TNFα/IL-8 release in PBMC cells). Settings: Homo sapiens, assay (b), read-out: IC50 Values for Inhibition of Cytokine Release PBMCs IL-8.
Assay type: cell-based
Experimental: Peripheral blood mononuclear cells (PBMCs) from healthy subjects are separated from whole blood using a density gradient (Lymphoprep, Axis-Shield Healthcare). The PBMCs are seeded in 96 well plates and treated with compounds at the desired concentration for 2 hours before addition of 1 ng/mL LPS (Escherichia Coli 0111:B4 from Sigma Aldrich) for 24 hours under normal tissue culture conditions (37° C., 5% CO2). The supernatant is harvested for determination of IL-8 and TNFα concentrations by sandwich ELISA (Duo-set, R&D systems) and read on the fluorescence microplate reader (Varioskan® Flash, ThermoFisher Scientific).
`COc1cc(Nc2cc(Oc3ccc(NC(=O)Nc4cc(C(C)(C)C)cc(NS(C)(=O)=O)c4OC)c4ccccc34)ccn2)cc(OCCOCCOCCO)c1` [84(e), 1-[5-tert-Butyl-3-(methanesulfonamido)-2-methoxy-phenyl]-3-[4-[[2-[3-[2-[2-(2-hydroxyethoxy)ethoxy]ethoxy]-5-methoxy-anilino]-4-pyridyl]oxy]-1-naphthyl]urea] gave an IC50 of 1.3 nM.
In the case of `COc1cc(Nc2cc(Oc3ccc(NC(=O)Nc4cc(C(C)(C)C)cc(NS(C)(=O)=O)c4OC)c4ccccc34)ccn2)cc(C(=O)NCCN2CCOCC2(C)C)c1` [85(l), 3-[[4-[[4-[[5-tert-Butyl-3-(methanesulfonamido)-2-methoxyphenyl]-carbamoylamino]-1-naphthyl]oxy]-2-pyridyl]amino]-N-[2-(3,3-dimethylmorpholin-4-yl)ethyl]-5-methoxybenzamide], the IC50 is reported as 2.8 nM.
`COc1c(NC(=O)Nc2ccc(Oc3ccnc(Nc4ccccc4)c3)c3ccccc23)cc(C(C)(C)C)cc1C(=O)NC1CCOCC1` [84(a), 3-[[4-[(2-Anilino-4-pyridyl)oxy]-1-naphthyl]carbamoylamino]-5-tert-butyl-2-methoxy-N-tetrahydropyran-4-yl-benzamide] gave an IC50 of 12.4 nM.
`COc1cc(CO)cc(Nc2cc(Oc3ccc(NC(=O)Nc4cc(C(C)(C)C)cc(NS(C)(=O)=O)c4OC)c4ccccc34)ccn2)c1` [84(f), 1-[5-tert-Butyl-3-(methanesulfonamido)-2-methoxyphenyl]-3-[4-[[2-[3-(hydroxymethyl)-5-methoxyanilino]-4-pyridyl]oxy]-naphthyl]urea] showed an IC50 of 13.5 nM.
`C#Cc1cc(Nc2cc(Oc3ccc(NC(=O)Nc4cc(C(C)(C)C)cc(NS(C)(=O)=O)c4OC)c4ccccc34)ccn2)cc(C(=O)NCCN2CCN(C)CC2)c1` [85(c), 3-[[4-[[4-[[5-tert-Butyl-3-(methanesulfonamido)-2-methoxyphenyl]-carbamoylaminol]-1-naphthyl]oxy]-2-pyridyl]amino]-5-ethynyl-N-[2-(4-methylpiperazin-1-yl)ethyl]benzamide] showed an IC50 of 4.6 nM.
`CNC(=O)c1cc(N2CCOCC2)cc(NC(=O)Nc2ccc(Oc3ccnc(Nc4cc(OC)cc(OCCOCCOCCOC)c4)n3)c3ccccc23)c1OC` [Example 32, 2-Methoxy-3-(3-(4-((2-((3-methoxy-5-(2-(2-(2-methoxyethoxy)ethoxy)ethoxy)phenyl)-amino)pyrimidin-4-yl)oxy)naphthalen-1-yl)ureido)-N-methyl-5-morpholinobenzamide] was tested, and the IC50 was 7.7 nM.
Molecule `COCCOCCOCCOCCOCCOCCOCCNC(=O)c1cc(Nc2nccc(Oc3ccc(NC(=O)Nc4cc(C(C)(C)C)cc(NS(C)(=O)=O)c4OC)c4ccccc34)n2)cc(OC)c1` [Example 40, 3-((4-((4-(3-(5-(tert-Butyl)-2-methoxy-3-(methylsulfonamido)phenyl)ureido)naphthalen-1-yl)oxy)pyrimidin-2-yl)amino)-N-(2,5,8,11,14,17,20-heptaoxadocosan-22-yl)-5-methoxy-benzamide] has an IC50 of 3.1 nM.
With `COCCOCCOCCOc1cc(Nc2nccc(Oc3ccc(NC(=O)Nc4cc(C(C)(C)C)cc(C#N)c4OC)c4ccccc34)n2)cc(OC)c1` [Example 22, 1-(5-(tert-Butyl)-3-cyano-2-methoxyphenyl)-3-(4-((2-((3-methoxy-5-(2-(2-(2-methoxy-ethoxy)ethoxy)ethoxy)phenyl)amino)pyrimidin-4-yl)oxy)naphthalen-1-yl)urea] the IC50 was 16.9 nM.
`COCCOCCOCCOc1cc(Nc2nccc(Oc3ccc(NC(=O)Nc4cc(C(C)(C)C)cc(N)c4OC)c4ccccc34)n2)cc(OC)c1` [Example 25, 1-(3-Amino-5-(tert-butyl)-2-methoxyphenyl)-3-(4-((2-((3-methoxy-5-(2-(2-(2-methoxy-ethoxy)ethoxy)ethoxy)phenyl)amino)pyrimidin-4-yl)oxy)naphthalen-1-yl)urea] gave an IC50 of 7 nM.
Work on `COc1c(NC(=O)Nc2ccc(Oc3ccnc(Nc4ccccc4)n3)c3ccccc23)cc(C(C)(C)C)cc1C(=O)NC1COC1` [Example 78, 5-(tert-Butyl)-2-methoxy-N-(oxetan-3-yl)-3-(3-(4-((2-(phenylamino)pyrimidin-4-yl)oxy)-naphthalen-1-yl)ureido)benzamide] yielded an IC50 of 14 nM.
Work on `COc1cc(Nc2cc(Oc3ccc(NC(=O)Nc4cc(C(C)(C)C)cc(NS(C)(=O)=O)c4OC)c4ccccc34)ccn2)cc(C(=O)NCCN2CCSCC2)c1` [85(i), 3-[[4-[[4-[[5-tert-Butyl-3-(methanesulfonamido)-2-methoxyphenyl]-carbamoylamino]-1-naphthyl]oxy]-2-pyridyl]amino]-5-methoxy-N-(2-thiomorpholinoethyl)-benzamide] yielded an IC50 of 1.5 nM.
`COc1cc(Nc2nccc(Oc3ccc(NC(=O)Nc4cc(C(C)(C)C)cc(NS(C)(=O)=O)c4OC)c4ccccc34)n2)cc(C(=O)NCCOCCOCCC(=O)O)c1` [Example 26, 3-(2-(2-(3-((4-((4-(3-(5-(tert-Butyl)-2-methoxy-3-(methylsulfonamido)phenyl)ureido)-naphthalen-1-yl)oxy)pyrimidin-2-yl)amino)-5-methoxybenzamido)ethoxy)ethoxy)-propanoic acid] gave an IC50 of 21.7 nM.
`COCCOCCOCC[S+]([O-])c1cc(Nc2cc(Oc3ccc(NC(=O)Nc4cc(C(C)(C)C)cc(NS(C)(=O)=O)c4OC)c4ccccc34)ccn2)cc(OC)c1` (centres unmarked) [85(x), 1-[5-tert-Butyl-3-(methanesulfonamido)-2-methoxyphenyl]-3-[4-[2-[3-methoxy-5-[2-[2-(2-methoxyethoxy)ethoxy]ethylsulfinyl]anilino]pyridin-4-yl]oxy-1-naphthyl]urea] was tested, and the IC50 was 0.9 nM.
In the case of `COCCOCCOCCOc1cc(Nc2nccc(Oc3ccc(NC(=O)Nc4cc(C(C)(C)C)cc(C(=O)NC(C)C)c4OC)c4ccccc34)n2)cc(OC)c1` [Example 42, 5-(tert-Butyl)-N-isopropyl-2-methoxy-3-(3-(4-((2-((3-methoxy-5-(2-(2-(2-methoxyethoxy)-ethoxy)ethoxy)phenyl)amino)pyrimidin-4-yl)ox)naphthalen-1-yl)ureido)benzamide], the IC50 is reported as 6.6 nM.
With `COc1cc(Nc2nccc(Oc3ccc(NC(=O)Nc4cc(C(C)(C)C)cc(NS(C)(=O)=O)c4OC)c4ccccc34)n2)cc(OCCOCCC(=O)O)c1` [Example 31, 3-(2-(3-((4-((4-(3-(5-(tert-Butyl)-2-methoxy-3-(methylsulfonamido)phenyl)ureido)-naphthalen-1-yl)oxy)pyrimidin-2-yl)amino)-5-methoxyphenoxy)ethoxy)propanoic acid] the IC50 was 7.2 nM.
For `COc1cc(Nc2cc(Oc3ccc(NC(=O)Nc4cc(C(C)(C)C)cc(NS(C)(=O)=O)c4OC)c4ccccc34)ccn2)cc(C(=O)NCCN2CCCN(C)CC2)c1` [85(p), 3-[[4-[[4-[[5-tert-Butyl-3-(methanesulfonamido)-2-methoxyphenyl]-carbamoylamino]-1-naphthyl]oxy]-2-pyridyl]amino]-5-methoxy-N-[2-(4-methyl-1,4-diazepan-1-yl)ethyl]benzamide], the IC50 was 7.1 nM.
`COCCOCCOCCOc1cc(Nc2nccc(Oc3ccc(NC(=O)Nc4cc(C(C)(C)C)cc(C(=O)N(C)C)c4OC)c4ccccc34)n2)cc(OC)c1` [Example 19, 5-(tert-Butyl)-2-methoxy-3-(3-(4-((2-((3-methoxy-5-(2-(2-(2-methoxyethoxy)ethoxy)-ethoxy)phenyl)amino)pyrimidin-4-yl)oxy)naphthalen-1-yl)ureido)-N,N-dimethylbenzamide] showed an IC50 of 8.7 nM.
Molecule `COCCOCCOCCOc1cc(Nc2nccc(Oc3ccc(NC(=O)Nc4cc(C(C)(C)C)cc(C(=O)O)c4OC)c4ccccc34)n2)cc(OC)c1` [Example 21, 5-(tert-Butyl)-2-methoxy-3-(3-(4-((2-((3-methoxy-5-(2-(2-(2-methoxyethoxy)ethoxy)-ethoxy)phenyl)amino)pyrimidin-4-yl)oxy)naphthalen-1-yl)ureido)benzoic acid] has an IC50 of 34.4 nM.
For `COCCOCCOCCOc1cc(Nc2nccc(Oc3ccc(NC(=O)Nc4cc(C(C)(C)C)cc5[nH]c(=O)oc45)c4ccccc34)n2)cc(OC)c1` [Example 63, 1-(5-(tert-Butyl)-2-oxo-2,3-dihydrobenzo[d]oxazol-7-yl)-3-(4-((2-((3-methoxy-5-(2-(2-(2-methoxyethoxy)ethoxy)ethoxy)phenyl)amino)pyrimidin-4-yl)oxy)naphthalen-1-yl)urea], the IC50 was 17.3 nM.
With `COc1cc(Nc2nccc(Oc3ccc(NC(=O)Nc4cc(C(C)(C)C)cc(NS(C)(=O)=O)c4OC)c4ccccc34)n2)cc(C(=O)NCCCN2CCOCC2)c1` [85(f), 3-[[4-[[4-[[5-tert-Butyl-3-(methanesulfonamido)-2-methoxyphenyl]-carbamoylamino]-1-naphthyl]oxy]pyrimidin-2-yl]amino]-5-methoxy-N-(3-morpholinopropyl)-benzamide] the IC50 was 0.7 nM.
With `COCCOCCOCCOc1cc(Nc2nccc(Oc3ccc(NC(=O)Nc4cc(C(C)(C)C)cc(Nc5ncccn5)c4OC)c4ccccc34)n2)cc(OC)c1` [Example 28, 1-(5-(tert-Butyl)-2-methoxy-3-(pyrimidin-2-ylamino)phenyl)-3-(4-((2-((3-methoxy-5-(2-(2-(2-methoxyethoxy)ethoxy)ethoxy)phenyl)amino)pyrimidin-4-yl)oxy)naphthalen-1-yl)urea] the IC50 was 11.9 nM.
For `COc1cc(Nc2nccc(Oc3ccc(NC(=O)Nc4cc(C(C)(C)C)cc(NS(C)(=O)=O)c4OC)c4ccccc34)n2)cc(C(=O)C2CC2)c1` [Example 50, N-(5-(tert-Butyl)-3-(3-(4-((2-((3-(cyclopropanecarbonyl)-5-methoxyphenyl)amino)-pyrimidin-4-yl)oxy)naphthalen-1-yl)ureido)-2-methoxyphenyl)methanesulfonamide], the IC50 was 12.1 nM.
For `COCCOCCOCCOc1cc(Nc2nccc(Oc3ccc(NC(=O)Nc4cc(C(C)(C)C)ccc4OC)c4ccccc34)n2)cc(OC)c1` [Example 8, 1-(5-(tert-Butyl)-2-methoxyphenyl)-3-(4-((2-((3-methoxy-5-(2-(2-(2-methoxyethoxy)ethoxy)-ethoxy)phenyl)amino)pyrimidin-4-yl)oxy)naphthalen-1-yl)urea], the IC50 was 28.1 nM.
